For 27 molecules, IC50 results are on record in US20070049593A1 (priority 2004, published 2007).

The assay addresses T1, HCV polymerase (Hepatitis C virus genotype 1b, UniProt P26663).
T1 construct: a region encoding NS5B (J Virol 1991 March, 65(3), 1105-13, 544 amino acids after deletion of 47 amino acids on the C-terminal); 6xHis (C); made in house; host or cells: Escherichia coli
The assay can be described thus: biochemical. On the set-up: species or system HCV BK strain. Put shortly:
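His-tagged NS5B (BK strain, 47-aa C-terminal deletion, E. coli-expressed) at 0.5 μg/ml copied 5 μg/ml run-off RNA bearing the HCV 3′ UTR with 2 μM UTP plus [3H]UTP, 50 μM ATP/GTP, in pH 7.5 Tris with 5 mM MgCl2, 25 °C, 90 min. TCA-precipitated RNA was counted and IC50 calculated.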

Where a name gives a salt, the structure may show the parent alone.

T1 sequence (P26663 2420-2963): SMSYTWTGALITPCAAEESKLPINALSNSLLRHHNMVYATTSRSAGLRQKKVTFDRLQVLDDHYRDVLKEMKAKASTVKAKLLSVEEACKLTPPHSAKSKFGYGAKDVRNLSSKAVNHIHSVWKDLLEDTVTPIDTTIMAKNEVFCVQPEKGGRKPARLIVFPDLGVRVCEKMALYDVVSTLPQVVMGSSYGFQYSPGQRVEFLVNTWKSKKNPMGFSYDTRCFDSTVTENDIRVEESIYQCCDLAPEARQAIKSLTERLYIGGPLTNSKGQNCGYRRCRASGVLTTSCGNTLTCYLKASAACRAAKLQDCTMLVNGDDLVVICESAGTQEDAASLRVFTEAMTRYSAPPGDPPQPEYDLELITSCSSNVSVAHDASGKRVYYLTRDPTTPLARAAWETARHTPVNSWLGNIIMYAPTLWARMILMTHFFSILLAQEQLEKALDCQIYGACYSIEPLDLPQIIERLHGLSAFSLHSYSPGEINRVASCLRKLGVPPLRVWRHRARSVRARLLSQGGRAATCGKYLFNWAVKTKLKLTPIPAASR

As to `O=C(O)c1ccc2c(C3CCCCC3)c3n(c2c1)CCN(CCN1CCC[C@@H](CCOc2ccccc2)C1)c1ccccc1-3` [Example 1-444, 13-cyclohexyl-5-{2-[(S)-3-(2-phenoxyethyl)piperidin-1-yl]ethyl}-6,7-dihydro-5H-benzo[5,6][1,4]diazepino[7,1-a]indole-10-carboxylic acid dihydrochloride], the IC50 is under 100 nM. As for `O=C(O)c1ccc2c(C3CCCCC3)c3n(c2c1)CCCn1cccc1-3` [Example 6-2, 13-cyclohexyl-6,7-dihydro-5H-pyrrolo[2′,1′:3,4][1,4]diazepino[1,2-a]indole-10-carboxylic acid], the figure is 100 to 1000 nM; as for `CCN(CCN1CCC(COC)CC1)c1cccc2c1OCCn1c-2c(C2CCCCC2)c2ccc(C(=O)O)cc21` [Example 2-275, 12-cyclohexyl-4-{N-ethyl-N-[2-(4-methoxymethylpiperidin-1-yl)ethyl]amino}-6,7-dihydro-5-oxa-7a-azadibenzo[a,e]azulene-9-carboxylic acid dihydrochloride], under 100 nM; as for `CS(=O)(=O)N1CCCN(CCN2CCn3c(c(C4CCCCC4)c4ccc(C(=O)O)cc43)-c3ccccc32)CC1` [Example 1-232, 13-cyclohexyl-5-[2-(4-methanesulfonyl-1,4-diazepan-1-yl)ethyl]-6,7-dihydro-5H-benzo[5,6][1,4]diazepino[7,1-a]indole-10-carboxylic acid dihydrochloride], under 100 nM. Next, `Cc1ccc2c(c1)N(C)CCn1c-2c(C2CCCCC2)c2ccc(C(=O)O)c(C)c21` [Example 1-569, 13-cyclohexyl-3,5,9-trimethyl-6,7-dihydro-5H-benzo[5,6][1,4]diazepino[7,1-a]indole-10-carboxylic acid]: 100 to 1000 nM. Next, `CC(C)(COc1ccc([N+](=O)[O-])cc1)NC(=O)c1ccc2c(C3CCCCC3)c3n(c2c1)CCOc1ccccc1-3` [Example 2-188, N-[1,1-dimethyl-2-(4-nitrophenoxy)ethyl]-12-cyclohexyl-6,7-dihydro-5-oxa-7a-azadibenzo[a,e]azulene-9-carboxamide]: 100 to 1000 nM; `O=C(NCCOCCO)c1ccc2c(C3CCCCC3)c3n(c2c1)CCOc1ccccc1-3` [Example 2-164, N-[2-(2-hydroxyethoxy)ethyl]-12-cyclohexyl-6,7-dihydro-5-oxa-7a-azadibenzo[a,e]azulene-9-carboxamide]: 100 to 1000 nM; `CCN(CC)CC(CN1CCn2c(c(C3CCCCC3)c3ccc(C(=O)O)cc32)-c2ccc(Cl)cc21)OC` (stereo not drawn) [Example 1-441, 3-chloro-13-cyclohexyl-5-(3-diethylamino-2-methoxypropyl)-6,7-dihydro-5H-benzo[5,6][1,4]diazepino[7,1-a]indole-10-carboxylic acid dihydrochloride]: under 100 nM. For the molecule `COc1ccc2c(c1)N(CC(=O)N1CCOCC1)CCn1c-2c(C2CCCCC2)c2ccc(C(=O)O)cc21` [Example 1-64, 13-cyclohexyl-3-methoxy-5-[2-(morpholin-4-yl)-2-oxoethyl]-6,7-dihydro-5H-benzo[5,6][1,4]diazepino[7,1-a]indole-10-carboxylic acid monohydrochloride], the IC50 was under 100 nM. As for `COCCN(C)C(=O)[C@H](Cc1ccc(O)cc1)NC(=O)c1ccc2c(C3CCCCC3)c3n(c2c1)CCOc1cc(OC)ccc1-3` [Example 2-295, N-{(S)-2-(4-hydroxyphenyl)-1-[N-(2-methoxyethyl)-N-methylcarbamoyl]ethyl}-12-cyclohexyl-3-methoxy-6,7-dihydro-5-oxa-7a-azadibenzo[a,e]azulene-9-carboxamide], the figure is under 100 nM; as for `CCC1CCCCN1CCN1CCn2c(c(C3CCCCC3)c3ccc(C(=O)O)cc32)-c2ccccc21` (stereo not drawn) [Example 1-332, 13-cyclohexyl-5-[2-(2-ethylpiperidin-1-yl)ethyl]-6,7-dihydro-5H-benzo[5,6][1,4]diazepino[7,1-a]indole-10-carboxylic acid dihydrochloride], under 100 nM; as for `CCOc1ccc2c(c1)N(CCC1CCCN(C(C)C)C1)CCn1c-2c(C2CCCCC2)c2ccc(C(=O)O)cc21` (stereo not drawn) [Example 1-349, 13-cyclohexyl-3-ethoxy-5-[2-(1-isopropylpiperidin-3-yl)ethyl]-6,7-dihydro-5H-benzo[5,6][1,4]diazepino[7,1-a]indole-10-carboxylic acid dihydrochloride], under 100 nM.

For `COCCC1CCCN(CCN2CCn3c(c(C4CCCCC4)c4ccc(C(=O)O)cc43)-c3ccc(C)cc32)C1` (stereo not drawn) [Example 1-308, 13-cyclohexyl-5-{2-[3-(2-methoxyethyl)piperidin-1-yl]ethyl}-3-methyl-6,7-dihydro-5H-benzo[5,6][1,4]diazepino[7,1-a]indole-10-carboxylic acid dihydrochloride], the IC50 was under 100 nM. On to `O=C(O)c1ccc2c(C3CCCCC3)c3n(c2c1)CCOc1c(-c2ccccc2/C=C/C(=O)N2CCCCC2)cccc1-3` [Example 2-534, 12-cyclohexyl-4-{2-[(E)-3-oxo-3-(piperidin-1-yl)propenyl]phenyl}-6,7-dihydro-5-oxa-7a-azadibenzo[a,e]azulene-9-carboxylic acid], for which the IC50 was under 100 nM.

With `CCCN1CCC(CCN2CCn3c(c(C4CCCCC4)c4ccc(C(=O)O)cc43)-c3ccccc32)CC1` [Example 1-173, 13-cyclohexyl-5-[2-(1-propylpiperidin-4-yl)ethyl]-6,7-dihydro-5H-benzo[5,6][1,4]diazepino[7,1-a]indole-10-carboxylic acid dihydrochloride], the IC50 was under 100 nM. Next, `COc1ccc2c(c1)OCCn1c-2c(C2CCCCC2)c2ccc(C(=O)NC(C)(C)c3nc4cc(CCC(=O)O)ccc4[nH]3)cc21` [Example 2-412, 3-(2-{1-[(12-cyclohexyl-3-methoxy-6,7-dihydro-5-oxa-7a-azadibenzo[a,e]azulene-9-carbonyl)amino]-1-methylethyl}-1H-benzimidazol-5-yl)propionic acid]: under 100 nM; `COc1ccc2c(c1)N(CCOC(C)C)CCn1c-2c(C2CCCCC2)c2ccc(C(=O)O)cc21` [Example 1-480, 13-cyclohexyl-5-(2-isopropoxyethyl)-3-methoxy-6,7-dihydro-5H-benzo[5,6][1,4]diazepino[7,1-a]indole-10-carboxylic acid]: under 100 nM; `COc1ccc2c(c1)OCCn1c-2c(C2CCCCC2)c2ccc(C(=O)N[C@@H](Cc3ccc(NC(C)=O)cc3)C(=O)O)cc21` [Example 2-340, (S)-3-(4-acetylaminophenyl)-2-[(12-cyclohexyl-3-methoxy-6,7-dihydro-5-oxa-7a-azadibenzo[a,e]azulene-9-carbonyl)amino]propionic acid]: under 100 nM. As for `O=C(CN1CCn2c(c(C3CCCCC3)c3ccc(C(=O)O)cc32)-c2ccccc21)NCc1ccccn1` [Example 1-33, 13-cyclohexyl-5-{[(pyridin-2-ylmethyl)carbamoyl]methyl}-6,7-dihydro-5H-benzo[5,6][1,4]diazepino[7,1-a]indole-10-carboxylic acid dihydrochloride], the figure is under 100 nM; as for `CC[C@H]1CCCN(CCN2CCn3c(c(C4CCCCC4)c4ccc(C(=O)O)cc43)-c3ccc(Cl)cc32)C1` [Example 1-335, 3-chloro-13-cyclohexyl-5-[2-((S)-3-ethylpiperidin-1-yl)ethyl]-6,7-dihydro-5H-benzo[5,6][1,4]diazepino[7,1-a]indole-10-carboxylic acid dihydrochloride], under 100 nM; as for `O=C(O)CN1CCC(NC(=O)c2ccc3c(C4CCCCC4)c4n(c3c2)CCOc2ccccc2-4)(c2nc3ccccc3[nH]2)CC1` [Example 2-247, {4-(1H-benzimidazol-2-yl)-4-[(12-cyclohexyl-6,7-dihydro-5-oxa-7a-azadibenzo[a,e]azulene-9-carbonyl)amino]piperidin-1-yl}acetic acid], under 100 nM.

`CC(=O)N(C)c1ccc(N2CCOCC2)c(COc2ccc3c(c2)OCCn2c-3c(C3CCCCC3)c3ccc(C(=O)O)cc32)c1` [Example 2-18, 3-[5-(N-acetyl-N-methylamino)-2-(morpholin-4-yl)benzyloxy]-12-cyclohexyl-6,7-dihydro-5-oxa-7a-azadibenzo[a,e]azulene-9-carboxylic acid monohydrochloride] returned an IC50 of under 100 nM.

The molecule `O=C(O)c1ccc2c(C3CCCCC3)c3n(c2c1)COc1ccccc1-3` [Example 4-2, 11-cyclohexyl-5-oxa-6a-azabenzo[a]fluorene-8-carboxylic acid] registered an IC50 of 100 to 1000 nM. As for `CC(C)(NC(=O)c1ccc2c(C3CCCCC3)c3n(c2c1)CCOc1ccccc1-3)c1ccc(CO)cc1` [Example 2-171, N-[1-(4-hydroxymethylphenyl)-1-methylethyl]-12-cyclohexyl-6,7-dihydro-5-oxa-7a-azadibenzo[a,e]azulene-9-carboxamide], the figure is under 100 nM. Next, `CC(C)c1ccc2c(c1)N(CCC1CCCN(C(C)C)C1)CCn1c-2c(C2CCCCC2)c2ccc(C(=O)O)cc21` (stereo not drawn) [Example 1-381, 13-cyclohexyl-3-isopropyl-5-[2-(1-isopropylpiperidin-3-yl)ethyl]-6,7-dihydro-5H-benzo[5,6][1,4]diazepino[7,1-a]indole-10-carboxylic acid dihydrochloride]: under 100 nM. As for `CC(C)(CNc1ccc(C#N)cc1)NC(=O)c1ccc2c(C3CCCCC3)c3n(c2c1)CCOc1ccccc1-3` [Example 2-158, N-[2-(4-cyanophenylamino)-1,1-dimethylethyl]-12-cyclohexyl-6,7-dihydro-5-oxa-7a-azadibenzo[a,e]azulene-9-carboxamide], the figure is under 100 nM; as for `CC(C)N1CCCC(CCN2CCn3c(c(C4CCCCC4)c4ccc(C(=O)O)cc43)-c3ccc(OCc4ccccc4)cc32)C1` (stereo not drawn) [Example 1-362, 3-benzyloxy-13-cyclohexyl-5-[2-(1-isopropylpiperidin-3-yl)ethyl]-6,7-dihydro-5H-benzo[5,6][1,4]diazepino[7,1-a]indole-10-carboxylic acid dihydrochloride], under 100 nM.
